Reference: patent publication US20240294466A1, “SODIUM N-(8-(2- HYDROXYBENZOYL)AMINO)CAPRYLATE P[…] A” (Novo Nordisk A/S, priority 2021, published 2024)
Where two headings read alike, the source gives them in different places.

Experiments:
[1] = Dynamic vapour sorption (DVS) moisture uptake, method 3; assay type: physicochemical; conditions: for Moisture absorption at 65% RH, Before: before heat treatment
Description: Moisture sorption/desorption data were measured by a Dynamic Vapour Sorption Advantage 1 from Surface Measurement Systems. Prior to analysis the samples were dried for up to about 48 h in desiccators containing phosphorus pentoxide. Approximately 20 mg of sample was placed into a balance pan and loaded into the instrument and the sample was then further dried for a minimum of 500 min in the instrument at 0% RH using a nitrogen purge. The resulting sample weight after the further drying was assigned as the 0% start weight and all weight gains and losses was calculated relative to this start weight. Sorption and desorption isotherms were collected over a range from 0 to 90% relative humidity (RH) using a nitrogen purge at 25° C. The threshold for equilibrium used for analysis was 0.002 to 0.0005 dm/dt.
Furthermore, samples were taken after 24 h of exposure at the indicated elevated temperatures and were subjected to dynamic vapor sorption measurements in accordance with method 3 to determine the hygroscopicity. The moisture uptake was measured at 65% RH. The hygroscopicity is decreased as the moisture absorbed at 65% RH decreases when exposing SNAC polymorphic form A to elevated temperatures for 24 h.

[2] = XRPD FWHM of the peak at 8.7±0.2° 2θ (degree of crystal imperfections), method 1; assay type: physicochemical; conditions: for FWHM (automatic mode), XRPD peak around 8.7 ± 0.2° 2θ, Before: before heat treatment
Description: (§1) XRPD was performed using a Malvern Panalytical Empyrean diffractometer at ambient conditions. The diffraction pattern was measured at room temperature using an Empyrean Cu LFF HR (45 kV/40 mA) source and PIXcel3D-Medipix3 1×1 detector. The measurement was performed in the range of 2-40° 20 using a scan speed of 0.067335° 2θ/s and a step size of 0.0262606° 2θ. The samples were measured in transmission mode and with a spinner revolution time of 1 second. Approximately 200 mg of sample were placed between two sheets of Kapton Polyimide Thin-film. The measurements were performed using a Soller slit of 0.04 radians and a fixed divergence slit of 0.5° on the incident beam, and a 3 mm Anti scatter slit and a Soller slit of 0.04 radians in the diffracted beam.
The degree of crystal imperfections was assessed by use of the FWHM as more crystal imperfections might cause peak broadening and lower peak height, which leads to higher FWHM values due to fewer lattice planes with identical orientation contributing to the diffraction peak. Oppositely, in the absence of crystal imperfections, lattice planes with identical orientation increase and result in narrower and higher diffraction peaks leading to smaller FWHM values. The FWHM was calculated using the characteristic peak at 8.7±0.2° 2θ by finding the apex of the peak and measuring the height of the peak applying the x-axis as the baseline (automatic mode) (see FIG. 11) or applying a baseline spanning the two surrounding troughs (manual mode) (see FIG. 12). This value is then divided in half to find the half height. Hereafter the width of the peak at that half height is measured and reported in ° 2θ. Alternatively, the peak at 6.0±0.2° 2θ may also be used to calculate the FWHM.
(§2) Samples from a batch of SNAC polymorphic form A (Batch 5) with a FWHM of 0.97° 2θ (automatic mode) and a moisture uptake of 1.98% at 65% RH from the beginning were heated to 90, 100, 110, 120, 130, and 140° C., respectively, in a tray oven. The samples were exposed to their respective temperatures for up to 72 h. The sample size was small enough to ensure that the samples equilibrated completely, within a few of minutes, to the oven temperature. Samples were taken during the 72 h of elevated temperature exposure and subjected to XRPD measurements in accordance with method 1 to determine the polymorphic form and impact on crystal imperfections using FWHM with the x-axis as the baseline (automatic mode).
(§3) Samples from different batches of SNAC polymorphic form A were subjected to a heat treatment in a tray oven and the sample size was small enough to ensure that the samples equilibrated completely and within a couple of minutes to the oven temperature. Samples were taken from the batches before the heat treatment and after the heat treatment and subjected to XRPD measurements in accordance with method 1 to determine the polymorphic form and impact on crystal imperfections using FWHM with the x-axis as the baseline (auto mode). Furthermore, samples were also subjected to DVS measurements in accordance with method 3 to determine the impact of the heat treatment on the hygroscopicity.

[3] = Polymorphic form determined by XRPD, method 1; assay type: physicochemical; conditions: after heat treatment 150° C. for 1 h
Description: as §1
The polymorphic form of the sample was determined by comparison of the diffractogram obtained for the sample with reference diffractograms for the SNAC polymorphs and solvates.
as §2, §3

[4] = XRPD with moisture chamber: relative humidity for onset of conversion of form A to trihydrate form F, method 2; assay type: physicochemical; conditions: increasing RH at ambient conditions
Description: The moisture chamber allows for controlling the humidity and temperature of the samples during XRPD measurements.
Samples from different batches of SNAC polymorphic form A were subjected to increasing levels of relative humidity at ambient conditions inside a humidity chamber with the possibility of simultaneous determination of the polymorphic form in accordance with the XRPD method 2. The diffractograms were visually inspected for the appearance of characteristic diffraction peaks for the SNAC polymorphic form F in order to determine at which relative humidity polymorphic conversion of form A to F started.

[5] = Dynamic vapour sorption (DVS) moisture uptake, method 3; assay type: physicochemical; conditions: not ground
[6] = heat treatment: None; derived from example 1 and figures of WO 2005/107462; cited from earlier work
[7] = heat treatment: None; derived from example 1 and figures of WO 2005/107462; cited from earlier work; remark: listed apart in the source
[8] = after heat treatment 115° C. for 24 h
[9] = after heat treatment 150° C. for 1 h
[10] = after heat treatment 120° C. for 20 h
[11] = after heat treatment 120° C. for 24 h
[12] = heat treatment 115° C. for 24 h
[13] = ground in a mortar with pestle for about 10 min
[14] = made per example 2 of WO 2008/028859, after drying at 90° C. for 18 h

SMILES	Moisture absorption at 65% RH, Before [1]	FWHM (automatic mode), XRPD peak around 8.7 ± 0.2° 2θ, Before [2]	Onset of trihydrate conversion (form A to form F) ([4]; heat treatment: None)	Moisture absorption at 65% RH ([1]; heat treatment: None)	FWHM (manual mode) ([2]; heat treatment: None)	other results
O=C([O-])CCCCCCCNC(=O)c1ccccc1O.[Na+] [Batch 1, monosodium N-[8-(2-hydroxybenzoyl)-amino]caprylate]	2.66%	1.08 ° 2θ				Moisture absorption at 65% RH, After [1, 8]: 1.26%; FWHM (automatic mode), XRPD peak around 8.7 ± 0.2° 2θ, After [2, 8]: 0.60 ° 2θ
O=C([O-])CCCCCCCNC(=O)c1ccccc1O.[Na+] [Batch 2, monosodium N-[8-(2-hydroxybenzoyl)-amino]caprylate]	2.90%	1.21 ° 2θ	70 % RH	2.90%	0.84 °2θ	Polymorphic form, After [3]: A & B; Moisture absorption at 65% RH, After [1, 9]: 1.04%; FWHM (automatic mode), XRPD peak around 8.7 ± 0.2° 2θ, After [2, 9]: 0.42 ° 2θ
O=C([O-])CCCCCCCNC(=O)c1ccccc1O.[Na+] [Batch 3, monosodium N-[8-(2-hydroxybenzoyl)-amino]caprylate]			75 % RH	1.95%	0.66 °2θ	
O=C([O-])CCCCCCCNC(=O)c1ccccc1O.[Na+] [Batch 4, monosodium N-[8-(2-hydroxybenzoyl)-amino]caprylate]	0.83%	0.79 ° 2θ				Moisture absorption at 65% RH, After [1, 10]: 0.84%; FWHM (automatic mode), XRPD peak around 8.7 ± 0.2° 2θ, After [2, 10]: 0.58 ° 2θ
O=C([O-])CCCCCCCNC(=O)c1ccccc1O.[Na+] [Batch 5, monosodium N-[8-(2-hydroxybenzoyl)-amino]caprylate]	1.98%	0.97 ° 2θ				Moisture absorption at 65% RH, After [1, 11]: 0.94%; FWHM (automatic mode), XRPD peak around 8.7 ± 0.2° 2θ, After [2, 11]: 0.58 ° 2θ
O=C([O-])CCCCCCCNC(=O)c1ccccc1O.[Na+] [Batch 6, monosodium N-[8-(2-hydroxybenzoyl)-amino]caprylate]			75 % RH	1.81%	0.65 °2θ	
O=C([O-])CCCCCCCNC(=O)c1ccccc1O.[Na+] [Batch 7, monosodium N-[8-(2-hydroxybenzoyl)-amino]caprylate]			70 % RH	2.06%	0.61 °2θ	
O=C([O-])CCCCCCCNC(=O)c1ccccc1O.[Na+] [Batch 8, monosodium N-[8-(2-hydroxybenzoyl)-amino]caprylate]			70 % RH	2.51%	0.82 °2θ	Onset of trihydrate conversion (form A to form F) [4, 12]: 80 % RH; Moisture absorption at 65% RH [1, 12]: 0.99%; FWHM (manual mode) [2, 12]: 0.47 °2θ
O=C([O-])CCCCCCCNC(=O)c1ccccc1O.[Na+] [Batch 9, monosodium N-[8-(2-hydroxybenzoyl)-amino]caprylate]			80 % RH	1.29%	0.60 °2θ	Onset of trihydrate conversion (form A to form F) [4, 12]: 80 % RH; Moisture absorption at 65% RH [1, 12]: 0.98%; FWHM (manual mode) [2, 12]: 0.52 °2θ
O=C([O-])CCCCCCCNC(=O)c1ccccc1O.[Na+] [Batch 10, monosodium N-[8-(2-hydroxybenzoyl)-amino]caprylate]						Moisture absorption at 60% RH [1, 13]: 2.99%; FWHM (auto mode) [2, 13]: 1.00 °2θ; FWHM (auto mode) ([2]; not ground): 0.79 °2θ; Moisture absorption at 60% RH [5]: 1.19%
O=C([O-])CCCCCCCNC(=O)c1ccccc1O.[Na+] [Batch 11, monosodium N-[8-(2-hydroxybenzoyl)-amino]caprylate, reference compound]						Moisture absorption at 65% RH [1, 14]: 2.62%; FWHM (auto mode) [2, 14]: 1.12 °2θ
O=C([O-])CCCCCCCNC(=O)c1ccccc1O.[Na+] [Batch X, monosodium N-[8-(2-hydroxybenzoyl)-amino]caprylate]						FWHM (manual mode) [6]: 0.90 °2θ; Moisture absorption at 65% RH [7]: 1.50%
